Results taken from patent US9133235B2, “Macrocyclic antagonists of the motilin receptor for treatment of gastrointestinal dysmotility disorders” (Ocera Therapeutics, Inc., priority 2006, dated 2015).
Like-named read-outs stand apart in the source and are kept apart here.

Legend:
[1] = system: strips of rabbit duodenum; assay: Rabbit duodenum contractility assay; conditions: pA2 from Schild plot, motilin dose response after 15 minute incubation
Method: D. Rabbit Duodenum Contractility Assay
Evaluation of compounds of the invention for ex vivo activity was conducted on strips of rabbit duodenum according to literature methods. (Van Assche, G.; Depoortere, I.; Thijs, T.; Janssens, J. J.; Peeters, T. L. Eur. J. Pharmacol. 1997, 337, 267-274; Matthijs, G.; Peeters, T. L.; Vantrappen, G. Naunyn-Schmiedeberg's Arch. Pharmacol. 1989, 339, 332-339.) Related methods can also be employed for this type of study. (Tomomasa, T.; Yagi, H.; Kimura, S.; Snape, W. J., Jr.; Hyman, P. E. Pediatric Res. 1989, 26, 458-461; Takanishi, H.; Yogo, K.; Ozaki, M.; Akima, M.; Koga, H.; Nabata, H. J. Pharm. Exp. Ther. 1995, 273, 624-628.)
Duodenal segments were vertically suspended in organ chambers of 10 mL filled with Krebs buffer and connected to an isotonic force transducer, with a preload of 1 g. After a stabilization period, the muscle strips were challenged with 10^−4 M acetylcholine and washed. This was repeated until a stable maximal contraction was obtained (2-3 times), with an interval of at least 20 minutes.
After a stable base line was reached, test compounds were added to the bath. After a 15 minute incubation, a dose response to motilin was recorded by adding logarithmically increasing concentrations of motilin to the bath (final concentration 10^−9 to 10^−6 M). A blank experiment (no test compound present) was also performed. At the end of the dose response curve, a supramaximal dose of acetylcholine (10^−4 M) was given and this response was used as a reference (100% contraction).
The results of experiments at different concentrations of test compound were combined and analyzed to derive the pA2 value from the Schild plot.

human motilin receptor = human motilin receptor (Homo sapiens, UniProt O43193); assay: Competitive radioligand binding assay (motilin receptor); design: purchased PerkinElmer (SignalScreen) 6110544; host or cells: CHO cells, stably transfected; membranes
Chain of human motilin receptor (O43193 whole entry): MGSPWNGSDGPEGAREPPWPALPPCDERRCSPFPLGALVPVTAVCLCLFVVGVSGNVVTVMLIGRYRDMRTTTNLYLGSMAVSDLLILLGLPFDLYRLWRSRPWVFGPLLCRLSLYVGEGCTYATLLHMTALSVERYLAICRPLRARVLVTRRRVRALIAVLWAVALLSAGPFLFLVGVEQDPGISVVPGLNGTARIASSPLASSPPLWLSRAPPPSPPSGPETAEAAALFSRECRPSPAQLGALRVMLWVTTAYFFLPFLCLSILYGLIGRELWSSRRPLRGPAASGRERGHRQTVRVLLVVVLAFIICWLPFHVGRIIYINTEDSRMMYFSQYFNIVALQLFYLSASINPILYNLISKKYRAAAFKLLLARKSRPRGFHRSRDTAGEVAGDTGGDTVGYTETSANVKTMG
Procedure, shortened: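 Membranes from CHO cells stably expressing human motilin receptor were incubated 2 h at room temperature with [125I]-motilin (0.04-0.06 nM final) and compound (0.0050–10 μM) in Tris-HCl pH 7.4, MgCl2, EDTA, 0.1% BSA. Filter-bound counts were measured; 1 μM motilin defined non-specific binding; variable-slope non-linear regression.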

[2] = [125I]-motilin competition, membranes of CHO cells with human motilin receptor, read-out: Ki

Ki (human motilin receptor; Table 7, read-out: Binding Ki) [nM]	Ki (human motilin receptor; [2]) [nM]	SMILES	Contractile Potency (pA2) [1]
≤ 10	–	CC(C)[C@H]1NC(=O)[C@@H](Cc2cccc(C(F)(F)F)c2)NCCOc2ccccc2CCCNC(=O)[C@H](CN(C)C)NC1=O [Compound 502]	7.92
≤ 10	≤ 10	CCC[C@@H]1NC(=O)[C@@H](C(C)C)NC(=O)[C@@H](Cc2cccc(F)c2)N[C@@H](C)COc2ccccc2CCCNC1=O [Compound 551]	8.29
–	≤ 10	CCC[C@@H]1NC(=O)[C@@H](C(C)C)NC(=O)[C@@H](Cc2ccc(O)c(Cl)c2)N[C@@H](C)COc2ccccc2CCCNC1=O [Compound 552]	–
≤ 10	≤ 10	CCC[C@@H]1NC(=O)[C@@H](C(C)C)NC(=O)[C@@H](Cc2ccc(O)c(C(C)(C)C)c2)NCCOc2ccccc2CCCNC1=O [Compound 553]	8.71
